These results are taken from publication PMC9863965 (Molecules, 2023).

One experiment deals with breast cancer (MCF7). As to the kind of experiment: MTT cytotoxicity assay, breast cancer (MCF7). Type of experiment: cell-based. The text has this: (§1) The cell lines laboratory at Vacsera, Dokkey, Giza, Egypt provided colon cancer (Caco2), cervical cancer (HeLa), prostate cancer (PC3), breast cancer (MCF7), hepatocellular carcinoma (HepG2) and normal human fetal lung fibroblast (WI38). The sterility of the process was maintained using a laminar airflow cabinet. The Roswell Park Memorial Institute medium (RPMI 1640) was used to sustain the cell culture. […] The 10% heat-inactivated fetal bovine serum was used to supplement the medium. The 3-(4,5-dimethylthiazol-2-yl)-2,5-diphenyl-2H-tetrazolium bromide (MTT) assay was employed to measure cytotoxicity. A purple formazan was created from the yellow MTT via a mitochondrial reduction. For inoculation, a 96-well microplate was filled with 1 × 10^5 cells per well in 100 μL of Roswell Park Memorial Institute medium (RPMI 1640). Conditions of 5% CO2, 37 °C and 95% humidity were used to incubate the microplate for 24 h to produce a completely formed monolayer sheet. After the cells formed a confluent layer, the growth media was decanted from 96-well microplates. […] Confluent cell monolayers were injected with 0.1 mL of the extract at each concentration using a multichannel pipette, and then they were dispersed throughout the 96 wells. The cells that were treated with the extracts were incubated at 37 °C and 5% CO2 for 24 h. […] The optical density at 560 nm was determined using a microplate reader. […]

The subject of a further experiment is colon cancer (Caco2). Kind of experiment: MTT cytotoxicity assay, colon cancer (Caco2). Type of experiment: cell-based.
Text: as §1
In general terms: Tetrazolium assays rely on reduction of a dye to a coloured formazan, in cell work by metabolically active cells.

A further experiment relates to cervical cancer (HeLa). As to the kind of experiment: MTT cytotoxicity assay, cervical cancer (HeLa). It is filed as cell-based.
Text: as §1

A further experiment deals with prostate cancer (PC3). As to the kind of experiment: MTT cytotoxicity assay, prostate cancer (PC3). It is filed as cell-based.
Text: as §1

The subject of experiment [1] is hepatocellular carcinoma (HepG2). Kind of experiment: MTT cytotoxicity assay, hepatocellular carcinoma (HepG2). Type of experiment: cell-based.
Text: as §1

The test system of experiment [2] is normal human fetal lung fibroblast (WI38). As to the kind of experiment: MTT cytotoxicity assay, normal fibroblast (WI38). The following applies: WI-38, mean ± standard deviation. It is filed as cell-based.
Text: as §1

Experiment [3] concerns tumor microtubule proteins of cancer cells. Details: method as in doi:10.1016/j.molstruc.2022.132636, PMID 22721782. The following applies: cited from earlier work.

Converted amounts (≈) assume the structure as drawn.

Broadly, the IC50 is the concentration that gives 50% inhibition. Read a high IC50 as weaker potency. As for `COc1cccc2c1C(=O)c1c(O)c3c(c(O)c1C2=O)C[C@@](O)(C(=O)CO)C[C@@H]3O[C@H]1C[C@H](N)[C@H](O)[C@H](C)O1` [Doxorubicin, doxorubicin], the IC50 in the experiment with breast cancer (MCF7) (Homo sapiens, MTT assay, breast cancer (MCF7), mean ± standard deviation) came to 36 ± 6 µg/mL (≈ 66.2 µM); with colon cancer (Caco2) (Homo sapiens, Caco-2, MTT assay, colon cancer (Caco2), mean ± standard deviation), 70.1 ± 1 µg/mL (≈ 129 µM); in the experiment on cervical cancer (HeLa) (Homo sapiens, MTT assay, cervical cancer (HeLa), mean ± standard deviation) it was 40 ± 2 µg/mL (≈ 73.6 µM); with prostate cancer (PC3) (MTT assay, prostate cancer (PC3), mean ± standard deviation) it was 38 ± 2 µg/mL (≈ 69.9 µM); in experiment [1] (Homo sapiens, MTT assay, hepatocellular carcinoma (HepG2), mean ± standard deviation) it was 44 ± 3 µg/mL (≈ 81 µM); in experiment [2], 51 ± 4 µg/mL (≈ 93.8 µM). For the same molecule, the “SI: selectivity index” value in the experiment with breast cancer (MCF7) (IC50 of non-cancer cell line (WI38) / IC50 of MCF7) came out at 1.4; in the experiment with colon cancer (Caco2) (IC50 of non-cancer cell line (WI38) / IC50 of Caco2), 0.7; with cervical cancer (HeLa) (IC50 of non-cancer cell line (WI38) / IC50 of HeLa), 1.2; in the experiment on prostate cancer (PC3) (IC50 of non-cancer cell line (WI38) / IC50 of PC3), 1.3; in experiment [1] (IC50 of non-cancer cell line (WI38) / IC50 of HepG2), 1.1.
On to Calystegine B, for which the “antitumor effect on assembly of tumor microtubule proteins” value in experiment [3] is given as “preventing the assembly of tumor microtubule proteins”.
